Like-named read-outs stand apart in the source and are kept apart here.
Columns and labels:
[1] = system: TEAD; assay: TEAD reporter assay (Hippo Pathway TEAD Reporter - MCF7 cell line, luciferase); type: cell-based; conditions: Homo sapiens
Description: TEAD inhibition can be assayed using Hippo Pathway TEAD Reporter—MCF7 Cell Line (BPS Bioscience, Catalog #: 60618).
The TEAD Reporter—MCF7 cell line contains the firefly luciferase gene under the control of TEAD responsive elements stably integrated into the human breast cancer cell line, MCF7. Inside the cells, basal unphosphorylated YAP/TAZ remains in the nucleus and induces the constitutive expression of luciferase reporter. The cell line is validated for the inhibition of the expression of luciferase reporter by the activators of the Hippo pathway.
• 1) Harvest TEAD Reporter—MCF7 cells from culture in growth medium and seed cells at a density of 35,000 cells per well into white clear-bottom 96-well microplate in 45 μl of assay medium. • 2) Incubate cells at 37° C. in a CO2 incubator for overnight. • 3) Dilute the activators (H2O2 or okadaic acid) stock in assay medium. Add 5 μl of diluted activators to the wells. The final concentration of DMSO in assay medium is 0.1%. • 4) Add 5 μl of assay medium with same concentration of DMSO without activator to control wells. • 5) Add 50 μl of assay medium with DMSO to cell-free control wells (for determining background luminescence). • 6) Set up each treatment in at least triplicate. • 7) Incubate cells at 37° C. in a CO2 incubator for 5-6 hours. • 8) Perform luciferase assay using the ONE-Step™ Luciferase Assay System following the protocol provided: Add 100 μl of ONE-Step™ Luciferase reagent per well and rock at room temperature for ˜15 minutes. Measure luminescence using a luminometer. • 9) Data Analysis: Obtain the background-subtracted luminescence by subtracting the average background luminescence (cell-free control wells) from the luminescence reading of all wells.
(§1) Certain compounds were tested in TEAD reporter assay, and in H226 and H28. A: EC50<0.1 uM; B: 0.1 uM≤EC50≤0.5 uM; C: EC50>0.5 uM.

[2] = system: H226; assay: Anti-proliferation assay in H226 cells; type: cell-based; conditions: Homo sapiens
Description: as §1
Individual cell lines were grown in medium according to supplier instructions and seeded into 96-well plates at a density that ensured logarithmic growth over 72 hours. TEAD inhibitor compounds were administered to cells at a top concentration of 10 μm and subsequently a 10 point 3-fold serial dilution was conducted. After 72 hours, proliferation was quantified using Cell TITERGLO™ (Promega, Inc.) and compared to vehicle control. IC50 and EC50 values were generated using XLFit curve fitting software.

[3] = TEAD Reporter - MCF7 cells, read-out: TEAD Reporter Assay EC50
[4] = NCI-H226, H226 cells, read-out: H226 EC50
[5] = MCF7, read-out: TEAD Reporter Assay EC50 (uM)
[6] = NCI-H226, read-out: H226 EC50 (uM)

Question: Which results are given for `CNS(=O)(=O)c1ccc(N[C@H]2CCc3ccccc32)c(-c2cn(C)cn2)c1` (single isomer, unassigned) [I-58]?
Answer: EC50 [1, 3]: > 0.5 µM; EC50 [2, 4]: > 0.5 µM

Question: What does the source list for `CNS(=O)(=O)c1ccc(N[C@@H]2CCc3ccccc32)c(-c2cn(C)cn2)c1` (single isomer, unassigned) [I-59]?
Answer: EC50 [1, 3]: < 0.1 µM; EC50 [2, 4]: < 0.1 µM

Question: With `CNS(=O)(=O)c1ccc(NC(CO)c2ccccc2)c(-c2cn(C)cn2)c1` (stereo in doubt) [I-39, 4-[[(1S)-2-Hydroxy-1-phenyl-ethyl]amino]-N-methyl-3-(1-methylimidazol-4-yl)benzenesulfonamide] as the compound, how does the EC50 [1, 3] read?
Answer: > 0.5 µM

Question: And the EC50 [2, 4]?
Answer: > 0.5 µM

Question: How did the EC50 [2, 4] turn out when `CNS(=O)(=O)c1ccc(Oc2cccc(C(F)(F)F)c2)c(B(O)O)c1` [I-18, [5-(methylsulfamoyl)-2-[3-(trifluoromethyl)phenoxy]phenyl]boronic acid] was run?
Answer: > 0.5 µM

Question: How did the EC50 [2, 4] turn out when `CNS(=O)(=O)c1ccc(Oc2cccc(C(F)(F)F)c2)c(-c2cnc(C)[nH]2)c1` [I-19, N-Methyl-3-(2-methyl-1H-imidazol-5-yl)-4-[3-(trifluoromethyl)phenoxy]benzenesulfonamide] was run?
Answer: > 0.5 µM

Question: `CNS(=O)(=O)c1ccc(Oc2cccc(C(F)(F)F)c2)c(-c2cc(C)n[nH]2)c1` [I-20, N-methyl-3-(3-methyl-1H-pyrazol-5-yl)-4-[3-(trifluoromethyl)phenoxy]benzenesulfonamide] was tested. Which EC50 [2, 4] did it give?
Answer: > 0.5 µM

Question: `CNS(=O)(=O)c1ccc(Nc2cccc(C(F)(F)F)c2)c(C(=O)N(C)OC)c1` [I-21, N-methoxy-N-methyl-5-(methylsulfamoyl)-2-[3-(trifluoromethyl)anilino]benzamide] was tested. Which EC50 [2, 4] did it give?
Answer: > 0.5 µM

Question: What does the source list for `CNS(=O)(=O)c1ccc(Oc2cccc(C(F)(F)F)c2)c(-c2cn(C)cn2)c1` [I-22, Y-Methyl-3-(1-methyl-1H-imidazol-4-yl)-4-(3-(trifluoromethyl)phenoxy)benzenesulfonamide]?
Answer: EC50 [1, 3]: > 0.5 µM; EC50 [2, 4]: > 0.5 µM

Question: Which results are given for `CNS(=O)(=O)c1ccc(Nc2cccc(C(F)(F)F)c2)c(C(C)=O)c1` [I-23, 3-acetyl-N-methyl-4-[3-(trifluoromethyl)anilino]benzenesulfonamide]?
Answer: EC50 [1, 3]: > 0.5 µM; EC50 [2, 4]: > 0.5 µM

Question: Which results are given for `CNS(=O)(=O)c1ccc(Oc2cccc(C(F)(F)F)c2)c(C(N)=O)c1` [I-24]?
Answer: EC50 [1, 3]: > 0.5 µM; EC50 [2, 4]: > 0.5 µM

Question: For `CNS(=O)(=O)c1ccc(Oc2cccc(C(F)(F)F)c2)c(-c2nc(C)c[nH]2)c1` [I-25, N-Methyl-3-(4-methyl-1H-imidazol-2-yl)-4-[3-(trifluoromethyl)phenoxy]benzenesulfonamide], which EC50 [1, 3] is on record?
Answer: > 0.5 µM

Question: With `COC(=O)c1ccc(NCc2ccccc2)c(-c2nnn(C)n2)c1` [I-26, Methyl 4-(benzylamino)-3-(2-methyltetrazol-5-yl)benzoate] as the compound, how does the EC50 [1, 3] read?
Answer: > 0.5 µM

Question: What about the EC50 [2, 4] of the same compound?
Answer: > 0.5 µM

Question: With `CNS(=O)(=O)c1ccc(N[C@@H](C)c2ccccc2)c(-c2cn(C)cn2)c1` [I-28, N-Methyl-3-(1-methylimidazol-4-yl)-4-[[(1S)-1-phenylethyl]amino]benzenesulfonamide] as the compound, how does the EC50 [1, 3] read?
Answer: > 0.5 µM

Question: What about the EC50 [2, 4] of the same compound?
Answer: > 0.5 µM

Question: What does the source list for `CNS(=O)(=O)c1ccc(NC(=O)c2ccccc2)c(-c2cn(C)cn2)c1` [I-29, N-[2-(1-Methylimidazol-4-yl)-4-(methylsulfamoyl)phenyl]benzamide]?
Answer: EC50 [1, 5]: > 0.5 µM; EC50 [2, 6]: > 0.5 µM

Question: With `CNS(=O)(=O)c1cnc(N[C@@H](C)c2ccccc2)c(-c2cn(C)cn2)c1` [I-34, N-Methyl-5-(1-methylimidazol-4-yl)-6-[[(1S)-1-phenylethyl]amino]pyridine-3-sulfonamide] as the compound, how does the EC50 [1, 3] read?
Answer: > 0.5 µM

Question: What about the EC50 [2, 4] of the same compound?
Answer: > 0.5 µM

Question: Which results are given for `CNS(=O)(=O)c1cnc(N[C@H](C)c2ccccc2)c(-c2cn(C)cn2)c1` [I-35, N-Methyl-5-(1-methylimidazol-4-yl)-6-[[(1R)-1-phenylethyl]amino]pyridine-3-sulfonamide]?
Answer: EC50 [1, 3]: 0.1 to 0.5 µM; EC50 [2, 4]: 0.1 to 0.5 µM

Question: What does the source list for `CNS(=O)(=O)c1ccc(N[C@H](CO)c2ccccc2)c(-c2cn(C)cn2)c1` [I-40, 4-[[(1S)-2-Hydroxy-1-phenyl-ethyl]amino]-N-methyl-3-(1-methylimidazol-4-yl)benzenesulfonamide]?
Answer: EC50 [1, 3]: > 0.5 µM; EC50 [2, 4]: > 0.5 µM

Question: `CCNS(=O)(=O)c1ccc(NCc2ccccc2)c(-c2cn(C)cn2)c1` [I-41, 4-(Benzylamino)-N-ethyl-3-(1-methylimidazol-4-yl)benzenesulfonamide] was tested. Which EC50 [1, 3] did it give?
Answer: 0.1 to 0.5 µM

Question: And the EC50 [2, 4]?
Answer: < 0.1 µM

Question: Which EC50 [1, 3] does the source give for `Cn1cnc(-c2cc(S(N)(=O)=O)ccc2NCc2ccccc2)c1` [I-42, 4-(Benzylamino)-3-(1-methylimidazol-4-yl)benzenesulfonamide] here?
Answer: > 0.5 µM

Question: What about the EC50 [2, 4] of the same compound?
Answer: 0.1 to 0.5 µM

Question: How did the EC50 [1, 3] turn out when `Cn1cnc(-c2cc(S(C)(=O)=O)ccc2NCc2ccccc2)c1` [I-44, N-Benzyl-2-(1-methylimidazol-4-yl)-4-methylsulfonyl-aniline] was run?
Answer: > 0.5 µM

Question: And the EC50 [2, 4]?
Answer: 0.1 to 0.5 µM

Question: `CC[C@@H](Nc1ccc(S(=O)(=O)NC)cc1-c1cn(C)cn1)c1ccccc1` [I-45, N-Methyl-3-(1-methylimidazol-4-yl)-4-[[(1R)-1-phenylpropyl]amino]benzenesulfonamide] was tested. Which EC50 [1, 5] did it give?
Answer: 0.1 to 0.5 µM

Question: And the EC50 [2, 6]?
Answer: 0.1 to 0.5 µM

Question: Which results are given for `CC(C)NS(=O)(=O)c1ccc(NCc2ccccc2)c(-c2cn(C)cn2)c1` [I-46, 4-(Benzylamino)-N-isopropyl-3-(1-methylimidazol-4-yl) benzenesulfonamide]?
Answer: EC50 [1, 5]: > 0.5 µM; EC50 [2, 6]: 0.1 to 0.5 µM

Question: What does the source list for `CNS(=O)(=O)c1ccc(N[C@@H]2CCCc3ccccc32)c(-c2cn(C)cn2)c1` [I-47, N-Methyl-3-(1-methylimidazol-4-yl)-4-[[(1R)-tetralin-1-yl]amino]benzenesulfonamide]?
Answer: EC50 [1, 3]: 0.1 to 0.5 µM; EC50 [2, 4]: 0.1 to 0.5 µM

Question: `Cn1cnc(-c2cc(S(C)(=O)=O)ccc2Nc2cc(C(F)(F)F)ccn2)c1` [I-48, N-[2-(1-Methylimidazol-4-yl)-4-methylsulfonyl-phenyl]-4-(trifluoromethyl)pyridin-2-amine] was tested. Which EC50 [1, 3] did it give?
Answer: > 0.5 µM

Question: And the EC50 [2, 4]?
Answer: 0.1 to 0.5 µM

Question: Which EC50 [1, 3] does the source give for `Cn1cnc(-c2cc(S(N)(=O)=O)ccc2Nc2cc(C(F)(F)F)ccn2)c1` [I-49, 3-(1-Methylimidazol-4-yl)-4-[[4-(trifluoromethyl)-2-pyridyl]amino]benzenesulfonamide] here?
Answer: > 0.5 µM

Question: And the EC50 [2, 4]?
Answer: 0.1 to 0.5 µM

Question: What does the source list for `CNS(=O)(=O)c1ccc(NCc2ccccc2)c(-c2cn(C(C)C)cn2)c1` [I-50, 4-(Benzylamino)-3-(1-isopropylimidazol-4-yl)-N-methyl-benzenesulfonamide]?
Answer: EC50 [1, 3]: 0.1 to 0.5 µM; EC50 [2, 4]: 0.1 to 0.5 µM

Question: Which EC50 [1, 3] does the source give for `CNS(=O)(=O)c1ccc(NCc2ccccc2)c(-c2cn(C3CC3)cn2)c1` [I-51, 4-(Benzylamino)-3-(1-cyclopropylimidazol-4-yl)-N-methyl-benzenesulfonamide] here?
Answer: < 0.1 µM

Question: What about the EC50 [2, 4] of the same compound?
Answer: < 0.1 µM

Question: With `CNS(=O)(=O)c1ccc(N[C@H]2CCCc3ccccc32)c(-c2cn(C)cn2)c1` [I-52, N-Methyl-3-(1-methylimidazol-4-yl)-4-[[(1S)-tetralin-1-yl]amino]benzenesulfonamide] as the compound, how does the EC50 [1, 3] read?
Answer: > 0.5 µM

Question: And the EC50 [2, 4]?
Answer: > 0.5 µM

Question: Which results are given for `CC[C@H](Nc1ccc(S(=O)(=O)NC)cc1-c1cn(C)cn1)c1ccccc1` [I-53, N-Methyl-3-(1-methylimidazol-4-yl)-4-[[(1S)-1-phenylpropyl]amino]benzenesulfonamide]?
Answer: EC50 [1, 3]: > 0.5 µM; EC50 [2, 4]: > 0.5 µM

Question: How did the EC50 [1, 3] turn out when `CNS(=O)(=O)c1ccc(Nc2cc(C(F)(F)F)ccn2)c(-c2cn(C3CC3)cn2)c1` [I-54, 3-(1-Cyclopropylimidazol-4-yl)-N-methyl-4-[[4-(trifluoromethyl)-2-pyridyl]amino]benzenesulfonamide] was run?
Answer: < 0.1 µM

Question: And the EC50 [2, 4]?
Answer: < 0.1 µM

Question: Which results are given for `CNS(=O)(=O)c1ccc(Nc2cc(C(F)(F)F)ccn2)c(-c2cn(C(C)C)cn2)c1` [I-55, 3-(1-Isopropylimidazol-4-yl)-N-methyl-4-[[4-(trifluoromethyl)-2-pyridyl]amino]benzenesulfonamide]?
Answer: EC50 [1, 3]: 0.1 to 0.5 µM; EC50 [2, 4]: < 0.1 µM

Question: For `CNS(=O)(=O)c1ccc(N[C@H](C)c2ccc(C(F)(F)F)cc2)c(-c2cn(C)cn2)c1` [I-56, N-Methyl-3-(1-methylimidazol-4-yl)-4-[[(1R)-1-[4-(trifluoromethyl)phenyl]ethyl]amino]benzenesulfonamide], which EC50 [1, 3] is on record?
Answer: 0.1 to 0.5 µM

Question: What about the EC50 [2, 4] of the same compound?
Answer: 0.1 to 0.5 µM

Question: What does the source list for `CNS(=O)(=O)c1ccc(N[C@@H](C)c2ccc(C(F)(F)F)cc2)c(-c2cn(C)cn2)c1` [I-57, N-Methyl-3-(1-methylimidazol-4-yl)-4-[[(1S)-1-[4-(trifluoromethyl)phenyl]ethyl]amino]benzenesulfonamide]?
Answer: EC50 [1, 3]: > 0.5 µM; EC50 [2, 4]: > 0.5 µM

Question: How did the EC50 [2, 4] turn out when `CNS(=O)(=O)c1ccc(Nc2ccc(C(F)(F)F)cn2)c(-c2cn(C3CC3)cn2)c1` [I-87, 3-(1-Cyclopropylimidazol-4-yl)-N-methyl-4-[[5-(trifluoromethyl)-2-pyridyl]amino]benzenesulfonamide] was run?
Answer: < 0.1 µM

Reference: patent US11274082B2, “Tead inhibitors and uses thereof” (Ikena Oncology, Inc., priority 2019, dated 2022)
